Results as given in patent US9416111B2, “Substituted diazine and triazine spleen tyrosine kinease (Syk) inhibitors” (Merck Sharp & Dohme Corp., priority 2012, dated 2016).
Several values for one entry are separate records, joined by “and”; a condition that tells them apart may be missing. Equal entries are not always repeated. Where two headings read alike, the source gives them in different places.

Target: T1, recombinant human GST-SYK (Homo sapiens, UniProt P43405)
T1 construct: purchased Carna Biosciences 08-176
Assay: Homogeneous Time-Resolved Fluorescence (HTRF) assay for the recombinant human Syk enzyme
Type: biochemical
Details: GST-hSYK 5 pM, ATP 25 μM
Procedure: Homogeneous Time-Resolved Fluorescence (HTRF) Assay for the Recombinant Human Syk Enzyme
A recombinant GST-hSYK fusion protein was used to measure potency of compounds to inhibit human Syk activity. The recombinant human GST-SYK (Carna Biosciences #08-176) (5 pM final concentration) was incubated with various concentrations of the inhibitor diluted in DMSO (0.1% final concentration) for 10 minutes at room temperature in 15 mM Tris-HCl (pH 7.5), 0.01% tween 20, 2 mM DTT in 384 well plate format. To initiate the reaction the biotinylated substrate peptide (250 nM final concentration) that contains the phosphorylation site for Syk was added with magnesium (5 mM final concentration) and ATP (25 μM final concentration). Final volume of the reaction was 10 μL. Phosphorylation of the peptide was allowed to proceed for 45′ at room temperature. To quench the reaction and detect the phosphorylated product, 2 nM of a Europium-anti-phosphotyrosine antibody (Perkin Elmer #AD0161) and 70 nM SA-APC (Perkin-Elmer #CR130-100) were added together in 15 mM Tris pH 7.5, 40 mM EDTA, 0.01% tween 20. Final volume of the quenching solution was 10 μL. The resulting HTRF signal was measured after 30 minutes on an EnVision (Perkin-Elmer) reader using a time-resolved fluorescence protocol.

[1] = IC50 rated in classes, read-out: rhSYK Activity

For `Cc1cc(Nc2nccc(C(F)(F)F)n2)cc(-c2cnc(NC3CCCCNC3=O)nc2)c1` (stereo not drawn) [Example 2.42, 3-{[5-(3-methyl-5-{[4-(trifluoromethyl)pyrimidin-2-yl]amino}phenyl)pyrimidin-2-yl]amino}azepan-2-one], the IC50 [1] was less than 0.1 µM.
Work on `Cc1cc(Nc2nccc(C(F)(F)F)n2)cc(-c2cnc(NCCC(=O)O)nc2)c1` [Example 2.8, N-[5-(3-methyl-5-{[4-(trifluoromethyl)pyrimidin-2-yl]amino}phenyl)pyrimidin-2-yl]-beta-alanine] yielded an IC50 [1] of less than 0.1 µM.
`COc1ncc(-c2cc(C)cc(Nc3nccc(C(F)(F)F)n3)c2)cn1` [Example 1.2, N-[3-(2-methoxypyrimidin-5-yl)-5-methylphenyl]-4-(trifluoromethyl)pyrimidin-2-amine] gave an IC50 [1] of less than 0.1 µM.
In the case of `Cc1cc(Nc2nccc(C(F)(F)F)n2)cc(-c2cnc(N3CCC[C@H]3C(=O)O)nc2)c1` [Example 2.5, 1-[5-(3-methyl-5-{[4-(trifluoromethyl)pyrimidin-2-yl]amino}phenyl)pyrimidin-2-yl]-L-proline], the IC50 [1] is reported as less than 0.1 µM.
`COc1ccnc(Nc2cc(C)cc(-c3cncc(CCC(=O)O)n3)c2)n1` [Example 3.16, 3-(6-{3-[(4-methoxypyrimidin-2-yl)amino]-5-methylphenyl}pyrazin-2-yl)propanoic acid] gave an IC50 [1] of less than 0.1 µM.
`Cc1cc(Nc2nccc(C(F)(F)F)n2)cc(-c2ncccn2)c1` [Example 3.23, N-(3-methyl-5-pyrimidin-2-ylphenyl)-4-(trifluoromethyl)pyrimidin-2-amine] showed an IC50 [1] of 0.1 to 1 µM.
`Cc1cc(Nc2nccc(C(F)(F)F)n2)cc(-c2ccncn2)c1` [Example 3.48, N-(3-methyl-5-pyrimidin-4-ylphenyl)-4-(trifluoromethyl)pyrimidin-2-amine] was tested, and the IC50 [1] was 0.1 to 1 µM.
`Cc1cc(Nc2nccc(C(F)(F)F)n2)cc(-c2cnc(NC3(C(=O)O)CC3)nc2)c1` [Example 2.3, 1-{[5-(3-methyl-5-{[4-(trifluoromethyl)pyrimidin-2-yl]amino}phenyl)pyrimidin-2-yl]amino}cyclopropanecarboxylic acid] gave an IC50 [1] of less than 0.1 µM.
In the case of `Cc1cc(Nc2nccc(C(F)(F)F)n2)cc(-c2cnc(NCCS(N)(=O)=O)nc2)c1` [Example 2.26, 2-{[5-(3-methyl-5-{[4-(trifluoromethyl)pyrimidin-2-yl]amino}phenyl)pyrimidin-2-yl]amino}ethanesulfonamide], the IC50 [1] is reported as less than 0.1 µM.
`Cc1cc(Nc2nccc(C(F)F)n2)cc(-c2cnc([C@H](C)[C@H]3CC[C@H](C(=O)O)[C@H](C)C3)nc2)c1` (single isomer, unassigned) [Example 7.1] was tested, and the IC50 [1] was less than 0.1 µM.
`CCOC(=O)CCc1ncc(-c2cc(C)cc(Nc3nccc(C)n3)c2)cn1` [Example 1.7, ethyl 3-(5-{3-methyl-5-[(4-methylpyrimidin-2-yl)amino]phenyl}pyrimidin-2-yl)propanoate] showed an IC50 [1] of 0.1 to 1 µM.
For `Cc1cc(Nc2nccc(C(F)(F)F)n2)cc(-c2cnc(N[C@@H]3CCC(=O)NC3)nc2)c1` [Example 2.72, (5R)-5-{[5-(3-methyl-5-{[4-(trifluoromethyl)pyrimidin-2-yl]amino}phenyl)pyrimidin-2-yl]amino}piperidin-2-one], the IC50 [1] was less than 0.1 µM.
With `Cc1cc(Nc2nccc(C(F)(F)F)n2)cc(-c2cnc(N3CCC3C(=O)O)nc2)c1` (stereo not drawn) [Example 2.54, 1-[5-(3-methyl-5-{[4-(trifluoromethyl)pyrimidin-2-yl]amino}phenyl)pyrimidin-2-yl]azetidine-2-carboxylic acid] the IC50 [1] was less than 0.1 µM.
Compound `Cc1cc(Nc2nccc(C(F)F)n2)cc(-c2cnc([C@H](C)[C@H]3CC[C@H](C(=O)O)[C@H](C)C3)nc2)c1` (single isomer, unassigned) [Example 7.4] has an IC50 [1] of less than 0.1 µM and an IC50 (values in text, read-out: IC50) of 0.0008 µM.
`Cc1cc(Nc2nccc(C)n2)cc(-c2cnc(CCC(=O)O)nc2)c1` [Example 3.55, 3-(5-{3-methyl-5-[(4-methylpyrimidin-2-yl)amino]phenyl}pyrimidin-2-yl)propanoic acid] was tested, and the IC50 [1] was 0.1 to 1 µM and < 0.1 µM.
In the case of `Cc1cc(Nc2nccc(C(F)(F)F)n2)cc(-c2cnc(N(C)CC(O)CO)nc2)c1` (stereo not drawn) [Example 2.43, 3-{methyl[5-(3-methyl-5-{[4-(trifluoromethyl)pyrimidin-2-yl]amino}phenyl)pyrimidin-2-yl]amino}propane-1,2-diol], the IC50 [1] is reported as less than 0.1 µM.
`Cc1cc(Nc2nccc(C(F)(F)F)n2)cc(-c2cnc(NCC(O)CO)nc2)c1` (stereo not drawn) [Example 2.13, 3-{[5-(3-methyl-5-{[4-(trifluoromethyl)pyrimidin-2-yl]amino}phenyl)pyrimidin-2-yl]amino}propane-1,2-diol] showed an IC50 [1] of less than 0.1 µM.
In the case of `COc1ccnc(Nc2cc(C)cc(-c3cc(CCC(=O)O)ncn3)c2)n1` [Example 3.47, 3-(6-{3-[(4-methoxypyrimidin-2-yl)amino]-5-methylphenyl}pyrimidin-4-yl)propanoic acid], the IC50 [1] is reported as 0.1 to 1 µM.
In the case of `Cc1cc(Nc2nccc(C(F)(F)F)n2)cc(-c2cnc(NC3(C(N)=O)CC3)nc2)c1` [Example 4.1, 1-{[5-(3-methyl-5-{[4-(trifluoromethyl)pyrimidin-2-yl]amino}phenyl)pyrimidin-2-yl]amino}cyclopropanecarboxamide], the IC50 [1] is reported as less than 0.1 µM and the IC50 (values in text, read-out: IC50) is reported as 0.0216 µM.
`Cc1cc(Nc2nccc(C(F)(F)F)n2)cc(-c2cnc(NC(C)CO)nc2)c1` (stereo not drawn) [Example 2.58, 2-{[5-(3-methyl-5-{[4-(trifluoromethyl)pyrimidin-2-yl]amino}phenyl)pyrimidin-2-yl]amino}propan-1-ol] gave an IC50 [1] of less than 0.1 µM.
Work on `CCC(CO)Nc1ncc(-c2cc(C)cc(Nc3nccc(C(F)(F)F)n3)c2)cn1` (stereo not drawn) [Example 2.59, 2-{[5-(3-methyl-5-{[4-(trifluoromethyl)pyrimidin-2-yl]amino}phenyl)pyrimidin-2-yl]amino}butan-1-ol] yielded an IC50 [1] of less than 0.1 µM.
`Cc1cc(Nc2nccc(C(F)(F)F)n2)cc(-c2cnc(NC3(CO)CCCC3)nc2)c1` [Example 2.36, (1-{[5-(3-methyl-5-{[4-(trifluoromethyl)pyrimidin-2-yl]amino}phenyl)pyrimidin-2-yl]amino}cyclopentyl)methanol] gave an IC50 [1] of less than 0.1 µM.
For `Cc1cc(Nc2nccc(C(F)(F)F)n2)cc(-c2cnc(N3CCCC(O)C3)nc2)c1` (stereo not drawn) [Example 2.75, 1-[5-(3-methyl-5-{[4-(trifluoromethyl)pyrimidin-2-yl]amino}phenyl)pyrimidin-2-yl]piperidin-3-ol], the IC50 [1] was less than 0.1 µM.
With `Cc1cc(Nc2nccc(C(F)(F)F)n2)cc(-c2cnc(NCCCCO)nc2)c1` [Example 2.35, 4-{[5-(3-methyl-5-{[4-(trifluoromethyl)pyrimidin-2-yl]amino}phenyl)pyrimidin-2-yl]amino}butan-1-ol] the IC50 [1] was less than 0.1 µM.
`Cc1cc(Nc2nccc(C(F)(F)F)n2)cc(-c2cnc(N3CCC(C)(O)CC3)nc2)c1` [Example 2.29, 4-methyl-1-[5-(3-methyl-5-{[4-(trifluoromethyl)pyrimidin-2-yl]amino}phenyl)pyrimidin-2-yl]piperidin-4-ol] showed an IC50 [1] of 0.1 to 1 µM.
`Cc1cc(Nc2nccc(C)n2)cc(-c2cnc(CCC(=O)O)cn2)c1` [Example 3.10, 3-(5-{3-methyl-5-[(4-methylpyrimidin-2-yl)amino]phenyl}pyrazin-2-yl)propanoic acid] gave an IC50 [1] of 0.1 to 1 µM.
With `Cc1cc(Nc2nccc(C(F)(F)F)n2)cc(-c2cnc(N3CCCC[C@H]3C(=O)O)nc2)c1` [Example 2.56, (2S)-1-[5-(3-methyl-5-{[4-(trifluoromethyl)pyrimidin-2-yl]amino}phenyl)pyrimidin-2-yl]piperidine-2-carboxylic acid] the IC50 [1] was less than 0.1 µM.
For `Cc1cc(Nc2nccc(C(F)(F)F)n2)cc(-c2cc(CCC(=O)O)ncn2)c1` [Example 3.50, 3-[6-(3-methyl-5-{[4-(trifluoromethyl)pyrimidin-2-yl]amino}phenyl)pyrimidin-4-yl]propanoic acid], the IC50 [1] was 0.1 to 1 µM.
`Cc1cc(Nc2nccc(C(F)(F)F)n2)cc(-c2cnc(NC(C)(C)CO)nc2)c1` [Example 2.57, 2-methyl-2-{[5-(3-methyl-5-{[4-(trifluoromethyl)pyrimidin-2-yl]amino}phenyl)pyrimidin-2-yl]amino}propan-1-ol] was tested, and the IC50 [1] was less than 0.1 µM.
`CNC(=O)CCNc1ncc(-c2cc(C)cc(Nc3nccc(C(F)(F)F)n3)c2)cn1` [Example 2.69, N-methyl-N~3~-[5-(3-methyl-5-{[4-(trifluoromethyl)pyrimidin-2-yl]amino}phenyl)pyrimidin-2-yl]-beta-alaninamide] gave an IC50 [1] of less than 0.1 µM.
`CCOC(=O)CCc1cncc(-c2cc(C)cc(Nc3nccc(C)n3)c2)n1` [Example 3.19, ethyl 3-(6-{3-methyl-5-[(4-methylpyrimidin-2-yl)amino]phenyl}pyrazin-2-yl)propanoate] showed an IC50 [1] of 0.1 to 1 µM.
For `Cc1cc(Nc2nccc(C3CC3)n2)cc(-c2cncc(CCC(=O)O)n2)c1` [Example 3.22, 3-(6-{3-[(4-cyclopropylpyrimidin-2-yl)amino]-5-methylphenyl}pyrazin-2-yl)propanoic acid], the IC50 [1] was less than 0.1 µM.
For `Cc1cc(Nc2nccc(C(F)(F)F)n2)cc(-c2cnc(NCC3CCC(=O)N3)nc2)c1` (stereo not drawn) [Example 2.22, 5-({[5-(3-methyl-5-{[4-(trifluoromethyl)pyrimidin-2-yl]amino}phenyl)pyrimidin-2-yl]amino}methyl)pyrrolidin-2-one], the IC50 [1] was less than 0.1 µM.
With `Cc1cc(Nc2nccc(C(F)(F)F)n2)cc(-c2cnc(N3CCN(C)C(=O)C3C)nc2)c1` (stereo not drawn) [Example 2.67, 1,3-dimethyl-4-[5-(3-methyl-5-{[4-(trifluoromethyl)pyrimidin-2-yl]amino}phenyl)pyrimidin-2-yl]piperazin-2-one] the IC50 [1] was less than 0.1 µM.
